Source: patent publication US9102701B2, “17-hydroxy-17-pentafluoroethyl-estra-4,9(10)-diene-11-ethynylphenyl derivatives, methods for the production thereof and use thereof for treating diseases” (Bayer Intellectual Property GmbH, priority 2009, dated 2015)
≈ marks a conversion by molar mass, not a printed value.

How the values were obtained:
[1] = molecular target: T1, human progesterone receptor A (Homo sapiens, UniProt P06401); assay: Progesterone receptor-antagonistic action in stably transfected SK-N-MC cells, PR-A, MMTV-LUC reporter; assay type: cell-based; details: read-out: IC50 PR-A
T1 construct: expressed in transfected cells; host or cells: SK-N-MC human neuroblastoma cells, stably transfected with pRChPR-A-neo and pMMTV-LUC
T1 sequence (P06401 1-769 isoform P06401-2): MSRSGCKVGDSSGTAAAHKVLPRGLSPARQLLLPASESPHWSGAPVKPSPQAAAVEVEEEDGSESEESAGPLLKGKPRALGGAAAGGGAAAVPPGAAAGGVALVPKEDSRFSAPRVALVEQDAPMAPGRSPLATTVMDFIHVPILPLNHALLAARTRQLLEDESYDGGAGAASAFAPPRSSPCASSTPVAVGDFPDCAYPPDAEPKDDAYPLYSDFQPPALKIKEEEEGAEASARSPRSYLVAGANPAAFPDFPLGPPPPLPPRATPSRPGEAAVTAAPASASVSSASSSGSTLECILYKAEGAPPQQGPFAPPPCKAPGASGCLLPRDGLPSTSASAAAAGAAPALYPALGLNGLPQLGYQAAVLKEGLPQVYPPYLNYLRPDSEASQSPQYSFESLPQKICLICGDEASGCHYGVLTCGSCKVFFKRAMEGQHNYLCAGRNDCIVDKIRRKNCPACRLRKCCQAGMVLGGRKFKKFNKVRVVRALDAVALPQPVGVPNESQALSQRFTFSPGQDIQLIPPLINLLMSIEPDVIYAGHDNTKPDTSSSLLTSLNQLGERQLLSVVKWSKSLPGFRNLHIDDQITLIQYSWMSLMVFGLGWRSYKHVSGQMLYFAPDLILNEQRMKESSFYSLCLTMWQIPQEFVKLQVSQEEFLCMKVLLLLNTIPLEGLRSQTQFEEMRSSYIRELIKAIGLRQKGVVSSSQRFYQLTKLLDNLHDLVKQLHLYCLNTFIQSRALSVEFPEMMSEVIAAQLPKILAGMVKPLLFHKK
Method in brief: (§1)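 SK-N-MC neuroblastoma cells stably expressing human PR-A or PR-B plus MMTV-LUC reporter, treated 24 h with compound (0.01 nmol/l upward). Antagonism measured against 0.1 nmol/l promegestone; luciferase in lysates as RLU, given as % efficacy and IC50 (agonism as EC50).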

[2] = Solubility in aqueous medium at pH 7.4; assay type: physicochemical; details: for solubility (in words): aqueous medium under physiological conditions; for solubility: aqueous medium, pH 7.4, aqueous buffer
[3] = tested on: pregnant rats; assay: Abortion test on female rats; assay type: in vivo; details: d5-d7 p.c., autopsy d9 p.c.
Method: Abortion Test on Female Rats
The action of progesterone and of the progesterone receptor is a fundamental precondition for successful pregnancy or gestation in mammals. The progesterone-antagonistic action of the inventive compounds was tested on pregnant rats (6 rats per group) on days 5 to 7 post coitum under conventional housing and feeding conditions.
After successful mating, the pregnant animals (presence of sperm in the vaginal smear on day 1 of pregnancy=d1 p.c.) were randomized and divided into the treatment group and the control group. The animals then each received subcutaneously or orally 0.15; 0.5; 1.5 or 5 mg/kg of the test compound or 1.0 ml/kg of vehicle (benzyl benzoate/castor oil: 1+4 [v/v]) daily from day 5 to day 7 (d5−d7 p.c.).
Autopsy was conducted on day 9 (d9 p.c.). As a characteristic of progesterone receptor-antagonistic action, the uterus was examined for the presence of nidation sites. Complete absence, or else the presence of pathological, haemorrhagic or otherwise abnormal nidation sites, on day 9 (d9 p.c.) was considered as abortion.

[4] = Metabolic stability in human liver microsomes; assay type: in vitro ADME; details: for Predicted clearance Human: predicted in vivo clearance from liver microsomes, well-stirred model, 1 μM; for Predicted Fmax (maximum oral bioavailability) Human: calculated from liver microsome data
Method: (§2) Determination of Metabolic Stability in Human and Rat Liver Microsomes
Isolated Human Liver Microsomes (HLM) were Used to Assess the Metabolic Stability of compounds of general formula I.
(§3) The incubations were conducted with 2.4 ml of HLM solution (protein content 0.5 mg/ml), 30 μl of the test compound (final concentration 1 μM) and 0.6 ml of the cofactor mixture (═NADPH-generating system composed of 3 IU glucose-6-phosphate dehydrogenase, 14.6 mg glucose-6-phosphate, 1.2 mg NADP) at 37° C. in 100 mM phosphate buffer at pH 7.4. Samples were taken at 6 time points (2-60 min) and precipitated with an equal volume of methanol, and the recovery of the test substances used in the supernatant was determined by LC-MS/MS analysis. The half-life of substance degradation determined therefrom was used to calculate what is called the intrinsic clearance of the substance in the liver microsome preparation.

[5] = Clearance and half-life after intravenous administration in rats; assay type: in vivo; details: i.v. bolus 0.3-0.5 mg/kg; for CLblood: female rats
[6] = molecular target: T2, human progesterone receptor B (Homo sapiens, UniProt P06401); assay: Progesterone receptor-antagonistic action in stably transfected SK-N-MC cells, PR-B, MMTV-LUC reporter; assay type: cell-based; details: read-out: IC50 PR-B
T2 construct: expressed in transfected cells; host or cells: SK-N-MC human neuroblastoma cells, stably transfected with pRChPR-B-neo and pMMTV-LUC
T2 sequence (P06401 1-933): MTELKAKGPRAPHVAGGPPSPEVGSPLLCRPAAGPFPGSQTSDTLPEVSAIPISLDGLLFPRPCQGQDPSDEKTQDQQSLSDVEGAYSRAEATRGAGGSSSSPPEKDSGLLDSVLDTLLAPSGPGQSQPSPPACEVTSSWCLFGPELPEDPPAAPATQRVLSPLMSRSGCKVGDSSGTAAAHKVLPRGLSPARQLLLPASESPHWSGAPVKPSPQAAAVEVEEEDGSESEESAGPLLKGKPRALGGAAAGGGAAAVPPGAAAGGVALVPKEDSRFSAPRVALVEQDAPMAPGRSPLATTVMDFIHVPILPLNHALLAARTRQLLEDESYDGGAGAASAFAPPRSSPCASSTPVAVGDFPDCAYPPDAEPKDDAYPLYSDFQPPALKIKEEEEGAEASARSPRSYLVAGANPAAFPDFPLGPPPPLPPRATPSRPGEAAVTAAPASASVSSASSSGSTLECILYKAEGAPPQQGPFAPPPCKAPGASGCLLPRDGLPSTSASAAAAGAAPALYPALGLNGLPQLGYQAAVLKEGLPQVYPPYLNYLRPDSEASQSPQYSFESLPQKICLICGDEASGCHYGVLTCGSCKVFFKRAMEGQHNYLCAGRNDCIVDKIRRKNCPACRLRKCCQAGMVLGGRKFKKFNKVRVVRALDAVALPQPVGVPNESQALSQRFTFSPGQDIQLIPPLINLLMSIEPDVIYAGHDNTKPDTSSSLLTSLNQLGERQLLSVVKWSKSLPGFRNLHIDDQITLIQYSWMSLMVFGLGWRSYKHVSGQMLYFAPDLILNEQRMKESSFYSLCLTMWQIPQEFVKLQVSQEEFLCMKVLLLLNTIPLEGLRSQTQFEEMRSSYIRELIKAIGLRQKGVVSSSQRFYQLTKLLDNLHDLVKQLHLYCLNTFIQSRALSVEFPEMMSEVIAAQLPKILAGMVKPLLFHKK
Method in brief: as §1

[7] = Metabolic stability in rat liver microsomes; assay type: in vitro ADME
Method: as §2, §3

SMILES	IC50 [1] [nM]	solubility (in words) [2]	solubility [2] [µg/mL]	Predicted clearance Human [4] [mL/min/kg]	CLblood [5] [mL/min/kg]	IC50 [6] [nM]	Predicted Fmax (maximum oral bioavailability) Human [4] [%]	predicted maximum bioavailability in rats (in words) [7]	half-life ([5]; female, rat, plasma, iv, read-out: t1/2 (terminal half-life)) [h]	Abortion rate ([3]; daily dose 0.5 mg/kg p.o.) [%]	Abortion rate ([3]; daily dose 1.5 mg/kg p.o.) [%]	Abortion rate ([3]; daily dose 5.0 mg/kg p.o.) [%]
C[C@]12C[C@H](c3ccc(C#Cc4ccc(C(=O)O)cc4)cc3)C3=C4CCC(=O)C=C4CC[C@H]3[C@@H]1CC[C@@]2(O)C(F)(F)C(F)(F)F [Example 16, 4-[4-((8S,11R,13S,14S,17S)-17-hydroxy-13-methyl-3-oxo-17-pentafluoroethyl-2,3,6,7,8,11,12,13,14,15,16,17-dodecahydro-1H-cyclopenta[a]phenanthren-11-yl)phenylethynyl]benzoic acid]	0.1	improved solubility	204 (≈ 334 µM)	5.5	35 ± 8.3	0.05				0	16.7	100
C[C@]12C[C@H](c3ccc(CO)cc3)C3=C4CCC(=O)C=C4CC[C@H]3[C@@H]1CC[C@@]2(O)C(F)(F)C(F)(F)F [Ref. 1*, (8S,11R,13S,14S,17S)-17-hydroxy-11-[4-(hydroxymethyl)phenyl]-13-methyl-17-pentafluoroethyl-1,2,6,7,8,11,12,13,14,15,16,17-dodecahydrocyclopenta[a]phenanthren-3-one, reference compound]	0.4		17 (≈ 34.2 µM)	12		0.3	42	good				
CCNC(=O)NCC#Cc1ccc([C@H]2C[C@@]3(C)C(CC[C@@]3(O)C(F)(F)C(F)(F)F)C3CCC4=CC(=O)CCC4=C32)cc1 (stereo partly drawn) [Example 31, 1-ethyl-3-{3-[4-((8S,11R,13S,14S,17S)-17-hydroxy-13-methyl-3-oxo-17-pentafluoroethyl-2,3,6,7,8,11,12,13,14,15,16,17-dodecahydro-1H-cyclopenta[a]phenanthren-1′-yl)phenyl]prop-2-ynyl}urea]	0.08		10 (≈ 16.9 µM)	18.8		0.1	15					
C[C@]12C[C@H](c3ccc(C#CC(=O)O)cc3)C3=C4CCC(=O)C=C4CCC3C1CC[C@@]2(O)C(F)(F)C(F)(F)F (stereo partly drawn) [Example 2, [4-((8S,11R,13S,14S,17S)-17-hydroxy-13-methyl-3-oxo-17-pentafluoroethyl-2,3,6,7,8,11,12,13,14,15,16,17-dodecahydro-4H-cyclopenta[a]phenanthren-11-yl)phenyl]propynoic acid]	32	improved solubility	178 (≈ 333 µM)	0		16						
C[C@]12C[C@H](c3ccc(C#CCO)cc3)C3=C4CCC(=O)C=C4CC[C@H]3[C@@H]1CC[C@@]2(O)C(F)(F)C(F)(F)F [Example 1, (8S,11R,13S,14S,17S)-17-hydroxy-11-[4-(3-hydroxyprop-1-yn-1-yl)phenyl]-13-methyl-17-pentafluoroethyl-1,2,6,7,8,11,12,13,14,15,16,17-dodecahydrocyclopenta[a]phenanthren-3-one]	0.097		13 (≈ 25 µM)	5.33		0.11				100	100	100
C[C@]12C[C@H](c3ccc(C#C/C=C/C#N)cc3)C3=C4CCC(=O)C=C4CCC3C1CC[C@@]2(O)C(F)(F)C(F)(F)F (stereo partly drawn) [Example 4, (E)-5-[4-((8S,11R,13S,14S,17S)-17-hydroxy-13-methyl-3-oxo-17-pentafluoroethyl-2,3,6,7,8,11,12,13,14,15,16,17-dodecahydro-1H-cyclopenta[a]phenanthren-1′-yl)phenyl]pent-2-en-4-ynenitrile]	0.2		8 (≈ 14.8 µM)	1.5	55 ± 21.7	0.1			≥ 1			

More lines, main results first:

IC50 [1] [nM]	solubility (in words) [2]	solubility [2] [µg/mL]	Predicted clearance Human [4] [mL/min/kg]	CLblood [5] [mL/min/kg]	IC50 [6] [nM]	Predicted Fmax (maximum oral bioavailability) Human [4] [%]	predicted maximum bioavailability in rats (in words) [7]	half-life ([5]; female, rat, plasma, iv, read-out: t1/2 (terminal half-life)) [h]	SMILES	Abortion rate ([3]; daily dose 0.5 mg/kg p.o.) [%]	Abortion rate ([3]; daily dose 1.5 mg/kg p.o.) [%]	Abortion rate ([3]; daily dose 5.0 mg/kg p.o.) [%]
0.1	improved solubility	148 (≈ 232 µM)	5.17		0.2				C[C@]12C[C@H](c3ccc(C#C/C=C/c4cccc(C(=O)O)c4)cc3)C3=C4CCC(=O)C=C4CCC3C1CC[C@@]2(O)C(F)(F)C(F)(F)F (stereo partly drawn) [Example 13A, 3-{(E)-4-[4-((8S,11R,13S,14S,17S)-17-hydroxy-13-methyl-3-oxo-17-pentafluoroethyl-2,3,6,7,8,11,12,13,14,15,16,17-dodecahydro-1H-cyclopenta[a]phenanthren-1′-yl)phenyl]but-1-en-3-ynyl}benzoic acid]			
0.1		5 (≈ 8.02 µM)	14.7		0.1	34			C[C@]12C[C@H](c3ccc(C#C/C=N/OCc4ccccc4)cc3)C3=C4CCC(=O)C=C4CCC3C1CC[C@@]2(O)C(F)(F)C(F)(F)F (stereo partly drawn) [Example 24A, (E)-[4-((8S,11R,13S,14S,17S)-17-hydroxy-13-methyl-3-oxo-17-pentafluoroethyl-2,3,6,7,8,11,12,13,14,15,16,17-dodecahydro-1H-cyclopenta[a]phenanthren-1′-yl)phenyl]propynal O-benzyl oxime]			
